Results reported in US9085557B2, “Quinolylpiperazino substituted thiolactone compounds and process for the preparation thereof” (Council of Scientific and Industrial Research, priority 2010, dated 2015).
≈ marks a conversion by molar mass, not a printed value.

What was measured:
[1] = test system: M. tuberculosis H37Rv (ATCC 27294); test: MIC determination by broth dilution against M. tuberculosis H37Rv; assay type: cell-based, Mycobacterium tuberculosis; conditions: for in vitro activity (words): M. tuberculosis H37Rv / sensitive isolates
[2] = test system: M. tuberculosis XDR-1 (XDR- strain); test: microbe, parasite or virus in culture; assay type: cell-based, Mycobacterium tuberculosis; conditions: for in vitro activity (words): XDR clinical isolates
[3] = test system: M. tuberculosis H37Rv; test: In vivo efficacy in murine model of M. tuberculosis H37Rv infection; parameters: species or system mice (BALB/c)
Description: The Compound 3f used in this study ([…]). The compound 3f was tested in vivo at 25 mg/kg. Rifampicin at 20 mg/kg was also tested as positive control. For in vivo studies compound and rifampicin was dissolved in pure DMSO and formulation was prepared 50% PEG in water for oral administration. The final concentration of DMSO was less than 0.1% v/v.
The institutional animal Ethics committee of the Indian Institute of Integrative Medicine (CSIR, Jammu) approved all experimental protocols with animals and the use of animals. The animals were bred and maintained under standard husbandry conditions; viz. humidity, temperature (25±2° C.). 8-week-old female (BALB/c) mice 20-22 gm by weight were used for the efficacy studies. Animals were allowed 1 week of acclimation before intake into experimental studies. Feed and water were given ad libitum.
Infection of M. tuberculosis:
M. tuberculosis (H37Rv) for infection was grown by the culturing of bacteria from Lowenstein-Jensen slant in Middlebrooke 7H9 medium on a rotary shaker for 10 days at 37° C. […] The mice were sacrificed after week post infection (early control), and bacterial numbers in the lungs were determined by macerating the organs (lung) and plating serial tenfold serial dilution on Middlebrook 7H10 agar plates in triplicates. […]
Eight infected mice were sacrificed from the control group 7 day after the infection (before the initiation of treatment) to obtain the initial CFU load of M. tuberculosis H37Rv at the initiation of treatment. […] Viable bacteria were quantitated by plating 10-fold serial dilutions in duplicates on Middlebrook, 7H10 agar supplemented with 10% OADC (oleic acid albumin dextrose catalase, Becton Dickinson, Sparks, Md.) and incubated at 37° C. in 5% CO2 for 4-6 weeks. CFU per organ sample was counted and expressed as log10 CFU per organ. CFU during in-vivo studies were determined on Middlebrook 7H10 plates supplement with 10% OADC containing Vancomycin 10 μg/ml, Amphoterecin 10 μg/ml, Nalidaxic acid 25 μg/ml. […]

[4] = test system: M. tuberculosis -617 (MDR- strain); test: microbe, parasite or virus in culture; assay type: cell-based, Mycobacterium tuberculosis; conditions: for in vitro activity (words): MDR clinical isolates
[5] = test system: AML-12 cells; test: Cytotoxicity assay (MTT) on cell line AML-12; assay type: cell-based
Description: The study was carried out using AML-12 cells line (ATCC-USA). Cells were grown in Dulbecco's Modified Eagle's Medium (DMEM) containing 10% fetal calf serum (FCS) and supplemented with 100 units/ml penicillin, 100 μg/ml streptomycin, 0.005 mg/ml insulin, 0.005 mg/ml transferrin, 5 ng/ml selenium, and 40 ng/ml dexamethasone, in a humidified atmosphere in 5% CO2 at 37° C., and were sub-cultured at 1:5 ratio once a week.
Cells were plated at a density of 3×10^4 cells/cm^2 and maintained in culture medium for 12 h after trypsinization. Cells were seeded onto 96-well plates and FCS was reduced to 5% for the experiment. Stock solutions of compound 3f were prepared fresh to avoid oxidation. Cells were incubated with the compounds (2-100 μg/ml) for 24 hrs.
After the completion of treatment, the medium was removed and cell viability was evaluated by assaying for the ability of functional mitochondria to catalyze the reduction of 3-(4,5-dimethylthiazol-2-yl)-2,5-diphenyltetrazolium bromide (MTT) to form formazan salt by mitochondrial dehydrogenases, and determined by Elisa reader at 565 nm (Multiskan Spectrum; Thermo Electron Corporation, USA). Percentage cytotoxicity was calculated with respect to the untreated cells.

## CC1=C(OCCCCCCCCCCCCN2CCN(c3ccnc4cc(C(F)(F)F)ccc34)CC2)C(C)SC1=O (stereo not drawn) [Compound 3f, 3,5-dimethyl-4-[(12-4-[7-(trifluoromethyl)-4-quinolyl]piperazinododecyl)oxy]-5H-thiophen-2-one]
[1]; listed as Compound 3f
  in vitro activity (words): active
[1]; listed as compound 3f
  in vitro activity (words): exhibits in vitro activity
[1]; M. tuberculosis H37Rv, broth dilution, 3 weeks at 37° C., read visually (no turbidity)
  MIC: 0.5 µg/mL (≈ 0.845 µM)
[2]; M. tuberculosis XDR-1 clinical isolate, broth dilution, 3 weeks
  MIC: 0.5 µg/mL (≈ 0.845 µM)
[2]; listed as Compound 3f
  in vitro activity (words): active
[2]; listed as compound 3f
  in vitro activity (words): exhibits in vitro activity
[3]; 25 mg/kg oral, 4 weeks
  type of in vivo activity (log CFU in lungs versus early control): bacteriostatic activity
[3]; BALB/c mice, intranasal infection, treatment from 1 week post infection, PO once daily for 4 weeks, RIF 20 mg/kg, 3f 25 mg/kg
  Log10 CFU/left Lung (mean ± SD): 6.2 ± 0.34 Log10 CFU/left Lung
[4]; M. tuberculosis 617 MDR clinical isolate, broth dilution, 3 weeks
  MIC: 0.5 µg/mL (≈ 0.845 µM)
[4]; listed as Compound 3f
  in vitro activity (words): active
[4]; listed as compound 3f
  in vitro activity (words): exhibits in vitro activity
[5]
  IC50 (extrapolate), cytotoxicity on AML-12: IC50 > 433 μg/ml (extrapolate)
